The source of these data is patent publication US20120165304A1, “6,7,8,9-Tetrahydro-5H-1,4,7,10a-tetraaza-cyclohept[f]indene derivatives, pharmaceutical compositions containing these compounds, their use and processes for preparing them” (BOEHRINGER INGELHEIM INTERNATIONAL GMBH, priority 2008, published 2012).

Chain of human 5-HT2C receptor (P28335 33-458 I156V/N158S/I160V limits assumed): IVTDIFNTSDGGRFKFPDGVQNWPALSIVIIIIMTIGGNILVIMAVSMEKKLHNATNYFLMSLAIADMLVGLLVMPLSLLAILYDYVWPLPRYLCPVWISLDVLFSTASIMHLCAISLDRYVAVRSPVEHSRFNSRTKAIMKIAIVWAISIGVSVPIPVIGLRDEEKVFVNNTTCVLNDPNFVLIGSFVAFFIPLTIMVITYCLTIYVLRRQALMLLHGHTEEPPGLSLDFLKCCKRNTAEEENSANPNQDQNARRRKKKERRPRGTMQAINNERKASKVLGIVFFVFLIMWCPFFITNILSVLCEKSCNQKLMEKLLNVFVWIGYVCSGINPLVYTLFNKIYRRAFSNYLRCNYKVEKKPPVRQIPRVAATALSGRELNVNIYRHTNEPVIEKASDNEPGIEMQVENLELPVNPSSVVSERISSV

This experiment has as its target human 5-HT2C receptor (Homo sapiens, UniProt P28335, I156V/I160V/N158S). In words: cell-based.
Compound `Clc1ccncc1OC1CN(c2c3c(nc4ccnn24)CCNCC3)C1` [Example 35.35] displayed an EC50 of 0.067 µM. This lies in the double-digit nanomolar range.

Compound `Cc1cnn2c(N3CC(C(=O)N4CCC5(CC4)OCc4ccccc45)C3)c3c(nc12)CCNCC3` [Example 31.242] came in with an EC50 of 0.086 µM.

As for `Fc1ccc(OC2CN(c3c4c(nc5ccnn35)CCNCC4)C2)cc1F` [Example 35.55], the EC50 stood at 0.115 µM.

In turn, `CN(Cc1ccccc1Br)C(=O)C1CN(c2c3c(nc4ccnn24)CCNCC3)C1` [Example 31.78] showed an EC50 of 0.083 µM.

Compound `CN(C(=O)C1CN(c2c3c(nc4ccnn24)CCNCC3)C1)C1CCCCC1` [Example 31.179] yielded an EC50 of 1.69 µM.

Compound `CN1CCC2(CCN(c3c4c(nc5ccnn35)CCNCC4)CC2)C1=O` [Example 1.66] yielded an EC50 of 1.66 µM.

Take `Cc1ccccc1N1CCN(C(=O)C2CN(c3c4c(nc5ccnn35)CCNCC4)C2)CC1` [Example 37.37]: the EC50 is 0.009 µM.

`COc1ccc(OC2CN(c3c4c(nc5ccnn35)CCNCC4)C2)cc1` [Example 1.10]: the EC50 was 0.096 µM.

As to `O=C(CC1CN(c2c3c(nc4ccnn24)CCNCC3)C1)N1CCc2ccccc21` [Example 33.1], the midpoint of the response, the EC50, lay at 0.019 µM.

Consider `C[C@@H]1C[C@H](C)CN(C(=O)C2CN(c3c4c(nc5ccnn35)CCN(C)CC4)C2)C1` [Example 36.15], for which the response was half-maximal at 0.154 µM (EC50). Against the preceding compound, the EC50 is about 8.1-fold higher.

The compound `O=C(NC1CCCC(C(F)(F)F)C1)C1CN(c2c3c(nc4ccnn24)CCNCC3)C1` (stereo not drawn) [Example 37.59] came in with an EC50 of 0.047 µM.

`O=C(NC1CCCCC1C(F)(F)F)C1CN(c2c3c(nc4ccnn24)CCNCC3)C1` (stereo not drawn) [Example 37.58] gave an EC50 of 0.224 µM.

On to `Cc1cnn2c(N3CC(C(=O)N4CCC(c5ccccc5F)CC4)C3)c3c(nc12)CCNCC3` [Example 31.243], for which the EC50 was 0.082 µM.

As for `CN(Cc1ccccc1Cl)C(=O)C1CN(c2c3c(nc4ccnn24)CCNCC3)C1` [Example 31.37], the EC50 stood at 0.068 µM.

Compound `O=C(C1CN(c2c3c(nc4ccnn24)CCNCC3)C1)N1CCC(Oc2ccc(F)c(F)c2)CC1` [Example 31.146] returned an EC50 of 0.091 µM.

In turn, `O=C(C1CN(c2c3c(nc4ccnn24)CCNCC3)C1)N1CCC(C(F)(F)F)C1` (stereo not drawn) [Example 31.95] registered an EC50 of 0.041 µM.

The compound `O=C(C1CC1)N1CCN(C(=O)C2CN(c3c4c(nc5ccnn35)CCNCC4)C2)CC1` [Example 37.56] registered an EC50 of 0.01 µM.

In the case of `CN1CCc2nc3ccnn3c(N3CC(C(=O)N4CCC(N5CCCC5)CC4)C3)c2CC1` [Example 36.8], the EC50 stood at 0.038 µM. Compared with the last compound, the EC50 is about 3.8-fold higher.

In turn, `Cc1ccc(OCC2CN(c3c4c(nc5ccnn35)CCNCC4)C2)c(F)c1F` [Example 15.10] displayed an EC50 of 0.02 µM.

Regarding `Brc1cnn2c(N3CC(Oc4ccccc4)C3)c3c(nc12)CCNCC3` [Example 2.1], the EC50 was determined as 0.007 µM.

The compound `COc1cccc(OCC2CN(c3c4c(nc5ccnn35)CCNCC4)C2)c1` [Example 15.20] yielded an EC50 of 0.026 µM.

`c1ccc(CC2CN(c3c4c(nc5ccnn35)CCNCC4)C2)nc1` [Example 18, 10-(3-Pyridin-2-ylmethyl-azetidin-1-yl)-6,7,8,9-tetrahydro-5H-1,4,7,10a-tetraaza-cyclohepta[f]indene] showed an EC50 of 0.451 µM.

Take `Cc1cnc(C2CN(c3c4c(nc5ccnn35)CCNCC4)C2)o1` [Example 10, 10-[3-(5-Methyl-oxazol-2-yl)-azetidin-1-yl]-6,7,8,9-tetrahydro-5H-1,4,7,10a-tetraaza-cyclohepta[f]indene]: the EC50 stood at 0.846 µM.

Turning to `C1=C(c2c3c(nc4ccnn24)CCNCC3)CCNC1` [Example 24, 10-(1,2,3,6-Tetrahydro-pyridin-4-yl)-6,7,8,9-tetrahydro-5H-1,4,7,10a-tetraaza-cyclohepta[f]indene], the EC50 came out at 0.588 µM.

`CN(Cc1cccc(Cl)c1)C(=O)C1CN(c2c3c(nc4ccnn24)CCNCC3)C1` [Example 31.39] yielded an EC50 of 0.044 µM.

Compound `Cc1ccc(C2CCN(C(=O)C3CN(c4c5c(nc6ccnn46)CCNCC5)C3)CC2)cc1` [Example 31.144] yielded an EC50 of 0.066 µM.

For `c1cc2nc3c(c(N4CCOCC4)n2n1)CCNCC3` [Example 7, 10-Morpholin-4-yl-6,7,8,9-tetrahydro-5H-1,4,7,10a-tetraaza-cyclohepta[f]indene], it took 2.58 µM to reach a half-maximal effect (EC50).

`O=C(NCc1ccc(OC(F)F)cc1)C1CN(c2c3c(nc4ccnn24)CCNCC3)C1` [Example 37.97] returned an EC50 of 0.008 µM.

`COc1ccc(OC2CN(c3c4c(nc5ccnn35)CCNCC4)C2)c(Cl)c1` [Example 35.19] showed an EC50 of 0.087 µM.

In the case of `COC[C@@H]1CCCN1c1c2c(nc3ccnn13)CCNCC2` [Example 1.11], the EC50 is 0.504 µM.

Compound `CCn1c(C2CN(c3c4c(nc5ccnn35)CCNCC4)C2)nc2ccccc21` [Example 34.2] yielded an EC50 of 0.15 µM. Against the preceding compound, the EC50 is about 3.4-fold lower.

Consider `c1cc2nc3c(c(N4CCCCCC4)n2n1)CCNCC3` [Example 7.5], for which the EC50 was found to be 0.592 µM.

As to `CN(C(=O)C1CN(c2c3c(nc4ccnn24)CCNCC3)C1)c1ccccc1` [Example 31.5], the midpoint of the response, the EC50, lay at 0.742 µM.

`CN1CCc2nc3ccnn3c(N3CC(C(=O)N4CCN(C5CC5)CC4)C3)c2CC1` [Example 36.24] returned an EC50 of 0.228 µM.

`CN(CCc1cccc(C(F)(F)F)c1)C(=O)C1CN(c2c3c(nc4ccnn24)CCNCC3)C1` [Example 31.89] registered an EC50 of 0.133 µM. Compared with the last compound, the EC50 is about 1.7-fold lower.

The compound `CNC(=O)C1CN(c2c3c(nc4ccnn24)CCNCC3)C1` [Example 9.1] returned an EC50 of 0.818 µM.

`Cc1cnn2c(N3CC(C(=O)N(C)Cc4ccc(C#N)cc4)C3)c3c(nc12)CCNCC3` [Example 31.250] displayed an EC50 of 0.009 µM.

As for `COc1cc(C)cc(OCC2CN(c3c4c(nc5ccnn35)CCNCC4)C2)c1` [Example 15.22], the EC50 came out at 0.141 µM. Compared with the last compound, the EC50 is about 16-fold higher.

`Fc1ccc(OCC2CN(c3c4c(nc5ccnn35)CCNCC4)C2)cc1` [Example 15, 10-[3-(4-Fluoro-phenoxymethyl)-azetidin-1-yl]-6,7,8,9-tetrahydro-5H-1,4,7,10a-tetraaza-cyclohepta[f]indene]: the response was half-maximal at 0.043 µM (EC50).

`O=C(NCCF)C1CN(c2c3c(nc4ccnn24)CCNCC3)C1` [Example 37.107] had an EC50 of 0.091 µM.

In the case of `O=C(C1CN(c2c3c(nc4ccnn24)CCNCC3)C1)N1CCC(c2ccccc2)(c2ccccc2)CC1` [Example 31.72], the EC50 came to 0.819 µM.

The compound `COc1ccc(Cl)c(OCC2CN(c3c4c(nc5ccnn35)CCNCC4)C2)c1` [Example 15.27] came in with an EC50 of 0.007 µM.

As for `O=C(C1CN(c2c3c(nc4ccnn24)CCNCC3)C1)N1C[C@@H]2C[C@H]1CN2` [Example 37.28], the EC50 came out at 0.006 µM.

Consider `c1cc2nc3c(c(N4CCCOCC4)n2n1)CCNCC3` [Example 1, 10-[1,4]Oxazepan-4-yl-6,7,8,9-tetrahydro-5H-1,4,7,10a-tetraaza-cyclohepta[f]indene], for which it took 0.908 µM to reach a half-maximal effect (EC50).

`OC1CCCN(c2c3c(nc4ccnn24)CCNCC3)C1` (stereo not drawn) [Example 1.38] gave an EC50 of 1.81 µM.

For `N#CC1CCN(C(=O)C2CN(c3c4c(nc5ccnn35)CCNCC4)C2)C1` (stereo not drawn) [Example 31.159], the EC50 is 0.032 µM.

Consider `CC1CCCN1C(=O)C1CN(c2c3c(nc4ccnn24)CCNCC3)C1` (stereo not drawn) [Example 31.73], for which the EC50 amounted to 0.252 µM. This EC50 lies about 7.9-fold higher than the previous one.

`COc1ccc(OCC2CN(c3c4c(nc5ccnn35)CCNCC4)C2)cc1` [Example 15.3] registered an EC50 of 0.01 µM.

Compound `CN(Cc1ccc(Cl)cc1Cl)C(=O)C1CN(c2c3c(nc4ccnn24)CCNCC3)C1` [Example 31.164] displayed an EC50 of 0.111 µM.

With `CC(C)(C)CCNC(=O)C1CN(c2c3c(nc4ccnn24)CCNCC3)C1` [Example 37.83], it took 0.051 µM to reach a half-maximal effect (EC50).

`COc1ccc(OC2CN(c3c4c(nc5ccnn35)CCNCC4)C2)cc1OC` [Example 35.49]: a half-maximal effect (EC50) was put at 0.137 µM. Compared with the last compound, the EC50 is about 2.7-fold higher.

On to `O=C(C1CN(c2c3c(nc4ccnn24)CCNCC3)C1)N1CCCCC1` [Example 31.15], for which the EC50 amounted to 0.342 µM.

In the case of `COc1ccc(OC2CN(c3c4c(nc5ccnn35)CCNCC4)C2)c(Br)c1` [Example 35.30], the EC50 was found to be 0.04 µM.

`CC(C)CN(Cc1ccc(F)cc1)C(=O)C1CN(c2c3c(nc4ccnn24)CCNCC3)C1` [Example 31.198] showed an EC50 of 1.81 µM.

Compound `Clc1ccccc1OCC1CN(c2c3c(nc4ccnn24)CCNCC3)C1` [Example 15.6] had an EC50 of 0.005 µM.

Compound `O=C(C1CN(c2c3c(nc4ccnn24)CCNCC3)C1)N1CCC2(CCCc3ccccc32)C1` (stereo not drawn) [Example 31.222] returned an EC50 of 0.096 µM. This EC50 is about 19-fold higher than that of the compound before.

On to `CC(C)CCNC(=O)C1CN(c2c3c(nc4ccnn24)CCNCC3)C1` [Example 37.82], for which the EC50 turned out to be 0.033 µM.

In turn, `CC1CN(C(=O)C2CN(c3c4c(nc5ccnn35)CCNCC4)C2)CCO1` (stereo not drawn) [Example 31.34] registered an EC50 of 0.091 µM.

The compound `CO[C@@H]1CCN(C(=O)C2CN(c3c4c(nc5ccnn35)CCN(C)CC4)C2)C1` [Example 36.38] returned an EC50 of 0.086 µM.

`O=C(C1CN(c2c3c(nc4ccnn24)CCNCC3)C1)N1CCC(CCc2ccccc2)C1` (stereo not drawn) [Example 31.99] came in with an EC50 of 0.064 µM.

`CN1CCN(C(=O)C2CN(c3c4c(nc5ccnn35)CCNCC4)C2)CC1=O` [Example 37.100] yielded an EC50 of 0.014 µM.

Compound `COc1ccccc1N(C)C(=O)C1CN(c2c3c(nc4ccnn24)CCNCC3)C1` [Example 31.38] registered an EC50 of 0.79 µM.

With `CC#CCNC(=O)C1CN(c2c3c(nc4ccnn24)CCNCC3)C1` [Example 37.105], the EC50 was 0.139 µM.

Compound `Brc1cnn2c(N3CCC(c4ccccc4)C3)c3c(nc12)CCNCC3` (stereo not drawn) [Example 2.2] registered an EC50 of 0.056 µM.

Turning to `COC1(C)CCN(C(=O)C2CN(c3c4c(nc5ccnn35)CCNCC4)C2)CC1` [Example 31.220], a half-maximal effect (EC50) was put at 0.055 µM.

In turn, `CN(Cc1cc(Cl)cc(Cl)c1)C(=O)C1CN(c2c3c(nc4ccnn24)CCNCC3)C1` [Example 31.165] had an EC50 of 0.072 µM.

`Cc1cnn2c(N3CC(C(=O)N4CCC5(CCOC5)CC4)C3)c3c(nc12)CCNCC3` [Example 31.240] yielded an EC50 of 0.029 µM. This EC50 is about 2.5-fold lower than that of the compound before.

In the case of `COCC1CN(c2c3c(nc4ccnn24)CCNCC3)C1` [Example 16, 10-(3-Methoxymethyl-azetidin-1-yl)-6,7,8,9-tetrahydro-5H-1,4,7,10a-tetraaza-cyclohepta[f]indene], the EC50 came out at 0.211 µM. This EC50 is about 7.3-fold higher than that of the compound before.

`CN(Cc1ccc(-c2ccccc2)cc1)C(=O)C1CN(c2c3c(nc4ccnn24)CCNCC3)C1` [Example 31.82] displayed an EC50 of 0.154 µM.
